# Reference: US9822147B2, “Methods of treating ophthalmic diseases using NPR-B agonists” (priority 2009, dated 2017)
# Numbered stars: 1 amine (or outer) side, 2 acyl side, 3 side chain; on linkers, the order of the positions; unused ones are H or OH. Square brackets hold non-standard residues; d marks the D form. Peptide text beside a SMILES is read from it. * marks the point of attachment. X14 = NCC(=O)N[C@@H]1C[C@@H](C(=O)[*:2])N([*:1])C1; X5 = NCCC(=O)N[C@@H]1C[C@@H](C(=O)[*:2])N([*:1])C1; X4 = NCCCN[C@@H]1C[C@@H](C(=O)[*:2])N([*:1])C1; X16 = CCN[C@@H]1C[C@@H](C(=O)[*:2])N([*:1])C1; X3 = NCCN[C@@H]1C[C@@H](C(=O)[*:2])N([*:1])C1; Pro(4R-NH2) = N[C@H]1CN[C@H](C(=O)O)C1; X2 = O=C([C@H]1CCCN([*:1])C1)[*:2]; NMeL = CN[C@@H](CC(C)C)C(=O)O; dOrn = NCCC[C@@H](N)C(=O)O; Octanoyl = CCCCCCCC(=O)*; Api = NC1(C(=O)O)CCNCC1
# Target: T1, NPR-B (Homo sapiens, UniProt P20594)
# T1 construct: a functional assay using endogenously NPR-B expressing GTM-3 cells; endogenous in cells; host or cells: GTM-3 (human glaucoma trabecular meshwork cells)
# T1 sequence (P20594 23-1047): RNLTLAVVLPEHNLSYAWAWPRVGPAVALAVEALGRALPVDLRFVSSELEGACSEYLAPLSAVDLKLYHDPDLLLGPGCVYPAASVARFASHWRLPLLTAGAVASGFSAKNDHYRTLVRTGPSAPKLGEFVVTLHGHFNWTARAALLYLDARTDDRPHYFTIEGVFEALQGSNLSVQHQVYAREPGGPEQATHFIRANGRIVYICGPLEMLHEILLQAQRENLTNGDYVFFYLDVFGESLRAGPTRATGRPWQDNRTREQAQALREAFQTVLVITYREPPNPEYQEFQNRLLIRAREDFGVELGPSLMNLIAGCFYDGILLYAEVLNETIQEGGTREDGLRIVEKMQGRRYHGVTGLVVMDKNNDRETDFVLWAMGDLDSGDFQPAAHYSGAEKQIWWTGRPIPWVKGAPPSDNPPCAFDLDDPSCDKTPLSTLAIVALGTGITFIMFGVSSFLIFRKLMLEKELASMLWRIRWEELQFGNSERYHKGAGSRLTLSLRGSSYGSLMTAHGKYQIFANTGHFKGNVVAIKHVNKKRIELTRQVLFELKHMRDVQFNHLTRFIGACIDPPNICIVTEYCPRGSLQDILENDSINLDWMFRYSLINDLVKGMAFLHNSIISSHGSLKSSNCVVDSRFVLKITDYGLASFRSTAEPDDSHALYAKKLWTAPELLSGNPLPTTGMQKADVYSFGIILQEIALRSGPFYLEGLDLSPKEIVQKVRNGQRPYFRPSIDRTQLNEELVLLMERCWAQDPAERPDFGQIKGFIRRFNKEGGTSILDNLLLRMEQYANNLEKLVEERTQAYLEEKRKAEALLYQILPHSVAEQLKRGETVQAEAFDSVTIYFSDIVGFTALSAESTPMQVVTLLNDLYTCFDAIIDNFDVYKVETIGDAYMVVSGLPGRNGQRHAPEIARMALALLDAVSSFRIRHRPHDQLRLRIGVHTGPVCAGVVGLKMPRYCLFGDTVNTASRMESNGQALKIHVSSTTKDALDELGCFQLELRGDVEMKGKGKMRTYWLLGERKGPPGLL
# Assay: NPR-B induced production of cyclic GMP in human glaucoma trabecular meshwork cells (GTM-3)
# Assay type: cell-based
# Conditions: not given
row,Compound,EC50 [µM]
1,"CCCCCCCC(=O)N1CCC[C@H](C(=O)N[C@@H](Cc2ccccc2)C(=O)NCC(=O)N[C@@H](CC(C)C)C(=O)N2C[C@H](N)C[C@H]2C(=O)N(C)[C@@H](CC(C)C)C(=O)N[C@@H](CC(=O)O)C(=O)N[C@@H](CCCNC(=N)N)C(=O)N[C@H](C(N)=O)[C@@H](C)CC)C1 [JAL-1320, Occ-Sni-Phe-Gly-Leu-Tap-Nml-Asp-Arg-Ile-NH2] (Octanoyl-[X2]FGL[Pro(4R-NH2)][NMeL]DRI-NH2)",< 1

# Same assay, conditions: group by EC50 and Emax (CNP = 100%); Table 4; read-out: Activity (group), NPR-B activation assayed with GTM-3 cells
row,Compound,EC50 [µM]
1,"CCCCCCCC(=O)N1CCC[C@H](C(=O)N[C@@H](Cc2ccccc2)C(=O)N[C@H](CCCNC(=N)N)C(=O)N[C@@H](CC(C)C)C(=O)N2C[C@H](N)C[C@H]2C(=O)N(C)[C@@H](CC(C)C)C(=O)N[C@@H](CC(=O)O)C(=O)N[C@@H](CCCNC(=N)N)C(=O)N[C@H](C(N)=O)[C@@H](C)CC)C1 [JAL-1317, Occ-Sni-Phe-arg-Leu-Tap-Nml-Asp-Arg-Ile-NH2] (Octanoyl-[X2]F[dR]L[Pro(4R-NH2)][NMeL]DRI-NH2)",< 1
2,"CCCCCCCC(=O)N1CCC[C@H](C(=O)N[C@@H](Cc2ccccc2)C(=O)N[C@H](CCCN)C(=O)N[C@@H](CC(C)C)C(=O)N2C[C@H](N)C[C@H]2C(=O)N(C)[C@@H](CC(C)C)C(=O)N[C@@H](CC(=O)O)C(=O)N[C@@H](CCCNC(=N)N)C(=O)N[C@H](C(N)=O)[C@@H](C)CC)C1 [JAL-1318, Occ-Sni-Phe-orn-Leu-Tap-Nml-Asp-Arg-Ile-NH2] (Octanoyl-[X2]F[dOrn]L[Pro(4R-NH2)][NMeL]DRI-NH2)",< 1
3,"CCCCCCCC(=O)N1CCC[C@H](C(=O)N[C@@H](Cc2ccccc2)C(=O)N[C@H](CC(C)C)C(=O)N[C@@H](CC(C)C)C(=O)N2C[C@H](NC(=O)CN)C[C@H]2C(=O)N(C)[C@@H](CC(C)C)C(=O)N[C@@H](CC(=O)O)C(=O)N[C@@H](CCCNC(=N)N)C(=O)N[C@H](C(N)=O)[C@@H](C)CC)C1 [JAL-1322, Occ-Sni-Phe-leu-Leu-Tap(G)-Nml-Asp-Arg-Ile-NH2] (Octanoyl-[X2]F[dL]L[X14][NMeL]DRI-NH2)",< 1
4,"CCCCCCCC(=O)N1CCC[C@H](C(=O)N[C@@H](Cc2ccccc2)C(=O)N[C@H](CC(C)C)C(=O)N[C@@H](CC(C)C)C(=O)N2C[C@H](NC(=O)CCN)C[C@H]2C(=O)N(C)[C@@H](CC(C)C)C(=O)N[C@@H](CC(=O)O)C(=O)N[C@@H](CCCNC(=N)N)C(=O)N[C@H](C(N)=O)[C@@H](C)CC)C1 [JAL-1323, Occ-Sni-Phe-leu-Leu-Tap(Bal)-Nml-Asp-Arg-Ile-NH2] (Octanoyl-[X2]F[dL]L[X5][NMeL]DRI-NH2)",< 1
5,"CCCCCCCCN1CCC[C@H](C(=O)N[C@@H](Cc2ccccc2)C(=O)N[C@H](CC(C)C)C(=O)N[C@@H](CC(C)C)C(=O)N2C[C@H](N)C[C@H]2C(=O)N(C)[C@@H](CC(C)C)C(=O)N[C@@H](CC(=O)O)C(=O)N[C@@H](CCCNC(=N)N)C(=O)N[C@H](C(N)=O)[C@@H](C)CC)C1 [JAL-1326, Oct-Sni-Phe-leu-Leu-Tap-Nml-Asp-Arg-Ile-NH2] (HELM PEPTIDE1{[CCCCCCCCN1CCC[C@H](C(=O)[*:2])C1].F.[dL].L.[N[C@@H]1C[C@@H](C(=O)[*:2])N([*:1])C1].[meL].D.R.I.[am]}$$$$V2.0)",< 1
6,"CCCCCCCC(=O)N[C@H](C)C(=O)N[C@@H](Cc1ccccc1)C(=O)N[C@H](CC(C)C)C(=O)N[C@@H](CC(C)C)C(=O)N1C[C@H](O)C[C@H]1C(=O)N(C)[C@@H](CC(C)C)C(=O)N[C@H](C(=O)N[C@@H](CCCNC(=N)N)C(=O)N[C@H](C(N)=O)[C@@H](C)CC)C(C)C [JAL-1332, Occ-ala-Phe-leu-Leu-Hyp-Nml-Val-Arg-Ile-NH2] (HELM PEPTIDE1{[CCCCCCCC(=O)[*:2]].[dA].F.[dL].L.[Hyp].[meL].V.R.I.[am]}$$$$V2.0)",< 1
7,"CCCCCCCC(=O)N[C@H](C)C(=O)N[C@@H](Cc1ccccc1)C(=O)NC(C(=O)N[C@@H](CC(C)C)C(=O)N1C[C@H](O)C[C@H]1C(=O)N(C)[C@@H](CC(C)C)C(=O)N[C@@H](CC(=O)O)C(=O)N[C@@H](CCCNC(=N)N)C(=O)N[C@H](C(N)=O)[C@@H](C)CC)C1CCCNC1 (stereo partly drawn) [JAL-1336, Occ-ala-Phe-Fhy-Leu-Hyp-Nml-Asp-Arg-Ile-NH2] (HELM PEPTIDE1{[CCCCCCCC(=O)[*:2]].[dA].F.[O=C(C(N[*:1])C1CCCNC1)[*:2]].L.[Hyp].[meL].D.R.I.[am]}$$$$V2.0)",< 1
8,"CCCCCCCC(=O)N[C@H](C)C(=O)N[C@@H](Cc1ccccc1)C(=O)NC1(C(=O)N[C@@H](CC(C)C)C(=O)N2C[C@H](O)C[C@H]2C(=O)N(C)[C@@H](CC(C)C)C(=O)N[C@@H](CC(=O)O)C(=O)N[C@@H](CCCNC(=N)N)C(=O)N[C@H](C(N)=O)[C@@H](C)CC)CCNCC1 [JAL-1338, Occ-ala-Phe-Apc-Leu-Hyp-Nml-Asp-Arg-Ile-NH2] (HELM PEPTIDE1{[CCCCCCCC(=O)[*:2]].[dA].F.[O=C(C1(N[*:1])CCNCC1)[*:2]].L.[Hyp].[meL].D.R.I.[am]}$$$$V2.0)",< 1
9,"CCCCCCCC(=O)N1CCC[C@H](C(=O)N[C@@H](Cc2ccccc2)C(=O)N[C@H](CC(C)C)C(=O)N[C@@H](CC(C)C)C(=O)N2C[C@H](NCC)C[C@H]2C(=O)N(C)[C@@H](CC(C)C)C(=O)N[C@@H](CC(=O)O)C(=O)N[C@@H](CCCNC(=N)N)C(=O)N[C@H](C(N)=O)[C@@H](C)CC)C1 [JAL-1349, Occ-Sni-Phe-leu-Leu-Tap(Et)-Nml-Asp-Arg-Ile-NH2] (Octanoyl-[X2]F[dL]L[X16][NMeL]DRI-NH2)",< 1
10,"CCCCCCCC(=O)N1CCC[C@H](C(=O)N[C@@H](Cc2ccccc2)C(=O)NC2(C(=O)N[C@@H](CC(C)C)C(=O)N3C[C@H](N)C[C@H]3C(=O)N(C)[C@@H](CC(C)C)C(=O)N[C@@H](CC(=O)O)C(=O)N[C@@H](CCCNC(=N)N)C(=O)N[C@H](C(N)=O)[C@@H](C)CC)CCNCC2)C1 [JAL-1351, Occ-Sni-Phe-Apc-Leu-Tap-Nml-Asp-Arg-Ile-NH2] (Octanoyl-[X2]F[Api]L[Pro(4R-NH2)][NMeL]DRI-NH2)",< 1
11,"CCCCCCCC(=O)N[C@H](C)C(=O)N[C@@H](Cc1ccccc1)C(=O)N[C@H](CC(C)C)C(=O)N[C@@H](CC(C)C)C(=O)N1C[C@H](O)C[C@H]1C(=O)N(C)[C@@H](CC(C)C)C(=O)N[C@@H](CC(=O)O)C(=O)N[C@@H](CCCNC(=N)N)C(=O)N[C@H](C(N)=O)C(C)(C)C [JAL-1352, Occ-ala-Phe-leu-Leu-Hyp-Nml-Asp-Arg-Tbg-NH2] (HELM PEPTIDE1{[CCCCCCCC(=O)[*:2]].[dA].F.[dL].L.[Hyp].[meL].D.R.[CC(C)(C)[C@H](N[*:1])C(=O)[*:2]].[am]}$$$$V2.0)",< 1
12,"CCCCCCCC(=O)N[C@H](C)C(=O)N[C@@H](Cc1ccccc1)C(=O)N[C@H](CC(C)C)C(=O)N[C@@H](CC(C)C)C(=O)N1C[C@H](O)C[C@H]1C(=O)N(C)[C@@H](CC(C)C)C(=O)N[C@@H](CC(=O)O)C(=O)N[C@@H](CCCNC(=N)N)C(=O)NC1(C(N)=O)CCCCC1 [JAL-1358, Occ-ala-Phe-leu-Leu-Hyp-Nml-Asp-Arg-Egz-NH2] (HELM PEPTIDE1{[CCCCCCCC(=O)[*:2]].[dA].F.[dL].L.[Hyp].[meL].D.R.[O=C(C1(N[*:1])CCCCC1)[*:2]].[am]}$$$$V2.0)",< 1
13,"CCCCCCCC(=O)N[C@H](C)C(=O)N[C@@H](Cc1ccccc1)C(=O)N[C@H](CC(C)C)C(=O)N[C@@H](CC(C)C)C(=O)N1C[C@H](O)C[C@H]1C(=O)N[C@@H](CN(C)C)C(=O)N[C@@H](CC(=O)O)C(=O)N[C@@H](CCCNC(=N)N)C(=O)N[C@H](C(N)=O)[C@@H](C)CC [JAL-1367, Occ-ala-Phe-leu-Leu-Hyp-Dap(Me2)-Asp-Arg-Ile-NH2] (HELM PEPTIDE1{[CCCCCCCC(=O)[*:2]].[dA].F.[dL].L.[Hyp].[CN(C)C[C@H](N[*:1])C(=O)[*:2]].D.R.I.[am]}$$$$V2.0)",< 1
14,"CCCCCCCC(=O)N1CCC[C@H](C(=O)N[C@@H](Cc2ccccc2)C(=O)N[C@H](CC(C)C)C(=O)N[C@@H](CC(C)C)C(=O)N2C[C@H](NCCN)C[C@H]2C(=O)N(C)[C@@H](CC(C)C)C(=O)N[C@@H](CC(=O)O)C(=O)N[C@@H](CCCNC(=N)N)C(=O)N[C@H](C(N)=O)[C@@H](C)CC)C1 [JAL-1371, Occ-Sni-Phe-leu-Leu-Tap(Ae)-Nml-Asp-Arg-Ile-NH2] (Octanoyl-[X2]F[dL]L[X3][NMeL]DRI-NH2)",< 1
15,"CCCCCCCC(=O)N1CCC[C@H](C(=O)N[C@@H](Cc2ccccc2)C(=O)N[C@H](CC(C)C)C(=O)N[C@@H](CC(C)C)C(=O)N2C[C@H](NCCCN)C[C@H]2C(=O)N(C)[C@@H](CC(C)C)C(=O)N[C@@H](CC(=O)O)C(=O)N[C@@H](CCCNC(=N)N)C(=O)N[C@H](C(N)=O)[C@@H](C)CC)C1 [JAL-1372, Occ-Sni-Phe-leu-Leu-Tap(Ap)-Nml-Asp-Arg-Ile-NH2] (Octanoyl-[X2]F[dL]L[X4][NMeL]DRI-NH2)",< 1
